Assay results from PubChem BioAssay (NCI).
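The compound was tested at five concentrations on cells cultured in 96-well plates, with a 48-hour exposure period. At the GI50, growth is halved. TGI denotes the concentration required for complete inhibition of growth.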

Experiments:
Test in all cases: NCI anticancer screen, dose series, 48 h
DLD-1 colon = tested on: DLD-1 colon
DMS 114 small cell lung = tested on: DMS 114 small cell lung
HOP-18 NSCLC = tested on: HOP-18 NSCLC
KM20L2 colon = tested on: KM20L2 colon
SNB-78 CNS = tested on: SNB-78 CNS
BT-549 breast = tested on: BT-549 breast
HS 578T breast = tested on: HS 578T breast
NCI/ADR-RES ovarian = tested on: NCI/ADR-RES ovarian
PC-3 prostate = tested on: PC-3 prostate
T-47D breast = tested on: T-47D breast

OCC1CC2CC1C1(C2)OCCO1 (stereo unspecified) was tested, and the TGI (DLD-1 colon) was > 100 µM, the TGI (DMS 114 small cell lung) was > 100 µM and the TGI (HOP-18 NSCLC) was > 100 µM. For the same compound, the TGI (KM20L2 colon) was > 100 µM and the TGI (SNB-78 CNS) was > 100 µM.
COc1ccc2c(c1)[n+]([O-])c(-c1ccc(Cl)c(Cl)c1)c(N)[n+]2[O-] was tested, and the TGI (DLD-1 colon) was > 100 µM, the TGI (DMS 114 small cell lung) was 32.1 µM and the TGI (HOP-18 NSCLC) was > 100 µM. For the same compound, the TGI (KM20L2 colon) was > 100 µM and the TGI (SNB-78 CNS) was > 100 µM.
In the case of S=C1OC2C3C4CC5C3C(O1)C1C5C4C21 (stereo unspecified), the TGI (DLD-1 colon) is reported as > 100 µM, the TGI (DMS 114 small cell lung) is reported as > 100 µM and the TGI (HOP-18 NSCLC) is reported as > 100 µM. For the same compound, the TGI (KM20L2 colon) was > 100 µM and the TGI (SNB-78 CNS) was > 100 µM.
Cc1cc(Br)cc(C)c1NC(=O)C(=O)C(C(=O)c1ccc(Cl)c(Cl)c1)C1OC(=O)c2ccccc21 (stereo unspecified) was tested, and the TGI (DLD-1 colon) was 51.2 µM, the TGI (DMS 114 small cell lung) was > 100 µM and the TGI (KM20L2 colon) was > 100 µM. The TGI (SNB-78 CNS) was > 100 µM.
For O=C1C=Cc2noc3cccc1c23, the TGI (DLD-1 colon) was 3.13 µM, the TGI (DMS 114 small cell lung) was 4.99 µM and the TGI (HOP-18 NSCLC) was 33.6 µM. For the same compound, the TGI (KM20L2 colon) was 34 µM and the TGI (SNB-78 CNS) was 12 µM.
For O=C(O)C(O)C(O)C1[O][Sb][O]C1CO (stereo unspecified), the GI50 (BT-549 breast) was > 100 µM, the TGI (BT-549 breast) was > 100 µM and the GI50 (DLD-1 colon) was > 100 µM. For the same compound, the TGI (DLD-1 colon) was > 100 µM, the GI50 (DMS 114 small cell lung) was > 43 µM and the TGI (DMS 114 small cell lung) was 98.3 µM. The GI50 (HOP-18 NSCLC) was > 100 µM, the TGI (HOP-18 NSCLC) was > 100 µM and the GI50 (HS 578T breast) was > 100 µM. For the same compound, the TGI (HS 578T breast) was > 100 µM, the GI50 (KM20L2 colon) was > 100 µM and the TGI (KM20L2 colon) was > 100 µM. The GI50 (NCI/ADR-RES ovarian) was > 100 µM, the TGI (NCI/ADR-RES ovarian) was > 100 µM and the GI50 (PC-3 prostate) was > 100 µM. For the same compound, the TGI (PC-3 prostate) was > 100 µM, the GI50 (SNB-78 CNS) was > 81.3 µM and the TGI (SNB-78 CNS) was > 100 µM. The GI50 (T-47D breast) was > 100 µM and the TGI (T-47D breast) was > 100 µM.
For CC(C)S(=O)(=O)n1c(N)nc2ccc(/C(=N/O)c3ccccc3)cc21, the TGI (DLD-1 colon) was > 100 µM, the TGI (DMS 114 small cell lung) was 43.8 µM and the TGI (KM20L2 colon) was 31.8 µM. For the same compound, the TGI (SNB-78 CNS) was > 100 µM.
With CN(C)/C(=N/C(=O)Nc1ccccc1)SCc1ccccc1 the TGI (DLD-1 colon) was > 100 µM, the TGI (DMS 114 small cell lung) was > 100 µM and the TGI (HOP-18 NSCLC) was > 100 µM. For the same compound, the TGI (SNB-78 CNS) was > 100 µM.
For Cc1cc(C(=O)NCCN(C)C)c2nc3ccccc3nc2c1, the TGI (DLD-1 colon) was 48.9 µM, the TGI (DMS 114 small cell lung) was 14.4 µM and the TGI (HOP-18 NSCLC) was > 88.8 µM. For the same compound, the TGI (KM20L2 colon) was 15.1 µM and the TGI (SNB-78 CNS) was 47.2 µM.
With CC(=O)Nc1[nH]c(=O)[nH]c(=O)c1N(C(C)=O)C(C)=O the TGI (DLD-1 colon) was > 100 µM, the TGI (DMS 114 small cell lung) was > 100 µM and the TGI (KM20L2 colon) was > 100 µM. The TGI (SNB-78 CNS) was > 100 µM.
CCCC/C(C)=N/NC(N)=S was tested, and the TGI (DLD-1 colon) was > 100 µM, the TGI (DMS 114 small cell lung) was > 100 µM and the TGI (HOP-18 NSCLC) was > 100 µM. The TGI (KM20L2 colon) was > 100 µM and the TGI (SNB-78 CNS) was > 100 µM.
COC(=N)/C(=C1\OC(N)=C(c2ccc(Cl)cc2)C1=O)c1ccc(Cl)cc1 was tested, and the TGI (DLD-1 colon) was > 100 µM, the TGI (DMS 114 small cell lung) was > 100 µM and the TGI (HOP-18 NSCLC) was > 100 µM. For the same compound, the TGI (KM20L2 colon) was > 100 µM and the TGI (SNB-78 CNS) was > 100 µM.
CC12CC(=O)NN=C1c1ccccc1C2 (stereo unspecified) was tested, and the TGI (DLD-1 colon) was > 100 µM, the TGI (DMS 114 small cell lung) was > 100 µM and the TGI (KM20L2 colon) was > 100 µM. For the same compound, the TGI (SNB-78 CNS) was > 100 µM.
Work on CC1=CC(=O)c2[nH]c3ccccc3c2C1=O yielded a GI50 (DLD-1 colon) of 5.06 µM, a TGI (DLD-1 colon) of 8.82 µM and a TGI (DMS 114 small cell lung) of 7.82 µM. The GI50 (HOP-18 NSCLC) was 3.35 µM, the TGI (HOP-18 NSCLC) was 7.5 µM and the TGI (KM20L2 colon) was > 25 µM.
With Cc1ccc(NC(=O)CCC(=O)C(C#N)c2ccc(Cl)cc2)cc1C (stereo unspecified) the TGI (DLD-1 colon) was > 100 µM, the TGI (DMS 114 small cell lung) was > 100 µM and the TGI (HOP-18 NSCLC) was > 100 µM. For the same compound, the TGI (KM20L2 colon) was > 100 µM and the TGI (SNB-78 CNS) was > 100 µM.
